Data on one cell line can be found in the supplement of paper PMC10307832.

Holding throughout (test): relative viability (nuclei count vs DMSO), 5 days (fraction); higher = more cells survive
Compound in the assay “BAM7 + Navitoclax”: CCOC1=CC=CC=C1N=NC2=C(NN(C2=O)C3=NC(=CS3)C4=CC=CC=C4)C [BAM7] + CC1(C)CCC(c2ccc(Cl)cc2)=C(CN2CCN(c3ccc(C(=O)NS(=O)(=O)c4ccc(N[C@H](CCN5CCOCC5)CSc5ccccc5)c(S(=O)(=O)C(F)(F)F)c4)cc3)CC2)C1 [Navitoclax] (partner 0.5 µM)
The method in brief: (§1)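 Relative viability is defined as nuclei in treated wells over nuclei in vehicle wells. Duplicate plates were run and medians reported. Lung cancer cell lines in 1536-well plates were dosed by pin tool one day after seeding, with one drug or with a fixed anchor-drug dose plus five library-drug doses (not always all listed) in √10 steps, and nuclei were counted after 5 days.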

Compound in the assay “BAM7 + Pictilisib”: CCOC1=CC=CC=C1N=NC2=C(NN(C2=O)C3=NC(=CS3)C4=CC=CC=C4)C [BAM7] + CS(=O)(=O)N1CCN(Cc2cc3nc(-c4cccc5[nH]ncc45)nc(N4CCOCC4)c3s2)CC1 [Pictilisib] (partner 1 µM)
In short, it runs like this:
as §1

Compound in the assay “BAM7 + Olaparib”: CCOC1=CC=CC=C1N=NC2=C(NN(C2=O)C3=NC(=CS3)C4=CC=CC=C4)C [BAM7] + O=C(c1cc(Cc2n[nH]c(=O)c3ccccc23)ccc1F)N1CCN(C(=O)C2CC2)CC1 [Olaparib] (partner 8 µM)
In short, it runs like this:
as §1

Compound in assay [1]: CCn1c(-c2nonc2N)nc2c(C#CC(C)(C)O)ncc(OC[C@H]3CCCNC3)c21 + Cc1nc(Nc2ncc(C(=O)Nc3c(C)cccc3Cl)s2)cc(N2CCN(CCO)CC2)n1 [Dasatinib] (partner 0.075 µM)
In short, it runs like this:
as §1

With UMC-11, the relative viability in the assay with BAM7 + Navitoclax (first compound 0.5 µM) is 0.306; with BAM7 + Navitoclax (first compound 5 µM) it was 0.319; with BAM7 + Navitoclax (first compound 15.81 µM), 0.391; with BAM7 + Navitoclax (first compound 50 µM), 0.372; in the assay with BAM7 + Pictilisib (first compound 0.5 µM) it was 0.856; with BAM7 + Pictilisib (first compound 5 µM) it was 0.897. For the same cell line, the relative viability in the assay with BAM7 + Pictilisib (first compound 15.81 µM) came out at 0.85; with BAM7 + Pictilisib (first compound 50 µM), 0.892; in the assay with BAM7 + Olaparib (first compound 0.5 µM), 0.305; with BAM7 + Olaparib (first compound 5 µM), 0.388; in the assay with BAM7 + Olaparib (first compound 15.81 µM), 0.462; with BAM7 + Olaparib (first compound 50 µM), 0.377. The relative viability worked out at 0.449 in assay [1] (first compound 0.01 µM); 0.498 in assay [1] (first compound 0.03162 µM); 0.438 in assay [1] (first compound 0.1 µM); 0.449 in assay [1] (first compound 0.3162 µM); 0.399 in assay [1] (first compound 1 µM).
